Consider one compound from article PMC7266110 (Drug Design, Development and Therapy, 2020).

Usually pIC50 stands for the IC50 on a negative log10 scale, so that one unit is a factor of ten. Low readings indicate a large IC50, high ones a small IC50.

This test has as its target T1, PPARγ (Homo sapiens, UniProt P37231).
T1 sequence (P37231 1-505): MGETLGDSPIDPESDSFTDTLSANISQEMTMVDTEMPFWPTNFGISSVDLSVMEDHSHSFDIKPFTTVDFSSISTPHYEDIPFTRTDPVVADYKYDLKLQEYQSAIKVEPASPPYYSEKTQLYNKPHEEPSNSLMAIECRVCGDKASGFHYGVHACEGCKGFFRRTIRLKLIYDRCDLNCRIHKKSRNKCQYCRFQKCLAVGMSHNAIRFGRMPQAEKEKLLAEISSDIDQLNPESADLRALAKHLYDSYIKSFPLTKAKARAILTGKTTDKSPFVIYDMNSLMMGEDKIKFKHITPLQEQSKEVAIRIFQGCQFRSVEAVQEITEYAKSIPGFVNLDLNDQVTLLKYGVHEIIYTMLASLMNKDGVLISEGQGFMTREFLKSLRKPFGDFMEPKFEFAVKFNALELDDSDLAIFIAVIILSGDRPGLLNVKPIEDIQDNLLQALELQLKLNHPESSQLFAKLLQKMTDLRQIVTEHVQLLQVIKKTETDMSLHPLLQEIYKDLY
The test can be described thus: FP-based PPARγ ligand screening assay. The format is binding.

pIC50: −log10 of the molar value.

Turning to `O=C(/C=C/C=C/c1ccc2c(c1)OCO2)N1CCCCC1` [Piperine], the negative logarithm of the IC50 (pIC50) was 4.74.
